In ChEMBL document CHEMBL1944566, “Conjugation of cell-penetrating peptides leads to identification of anti-HIV peptides from matrix proteins” (Bioorg Med Chem, 2012):
Calls of active or inactive are those of the source. The rule behind the calls is not given here. Where a SMILES comes first, the peptide text is derived from it. The star is where a group is joined. Cam = NC(=O)C*

Experiments:
[1] = tested on: Human immunodeficiency virus 1; experiment: Antiviral activity against X4 tropic HIV1 NL4-3 in MT4 cells assessed as protection from virus-induced cytopathogenicity after 5 days by MTT assay; type: functional, organism-based; conditions: Human immunodeficiency virus 1, NL4-3, MT4, 120 h
[2] = tested on: Human immunodeficiency virus 1; experiment: Antiviral activity against R5 tropic HIV1 NL(AD8) in PM1/CCR5 cells assessed as protection from virus-induced cytopathogenicity at 50 uM after 5 days by MTT assay; type: functional; conditions: Human immunodeficiency virus 1, NL(AD8), PM1/CCR5, 120 h
[3] = tested on: Human immunodeficiency virus 1; experiment: Antiviral activity against R5 tropic HIV1 JR-CSF in PM1/CCR5 cells assessed as protection from virus-induced cytopathogenicity measuring capsid p24 level at 50 uM after 5 days by ELISA; type: functional; conditions: Human immunodeficiency virus 1, JRCSF ISOLATE, PM1/CCR5, 120 h
[4] = Cytotoxicity against human MT4 cells after 5 days by MTT assay; type: cell-based
[5] = Aqueous solubility of the compound; type: physicochemical; conditions: buffer
[6] = tested on: Human immunodeficiency virus 1; experiment: Antiviral activity against R5 tropic HIV1 NL(AD8) in PM1/CCR5 cells assessed as protection from virus-induced cytopathogenicity after 5 days by MTT assay; type: functional, organism-based; conditions: Human immunodeficiency virus 1, NL(AD8), PM1/CCR5, 120 h
[7] = tested on: Human immunodeficiency virus 1; experiment: Antiviral activity against R5 tropic HIV1 JR-CSF in PM1/CCR5 cells assessed as protection from virus-induced cytopathogenicity measuring capsid p24 level after 5 days by ELISA; type: functional, cell-based; conditions: Human immunodeficiency virus 1, JRCSF ISOLATE, PM1/CCR5, 120 h
[8] = Solubility in PBS buffer; type: physicochemical
[9] = tested on: Human immunodeficiency virus 1; experiment: Antiviral activity against R5 tropic HIV1 NL(AD8) in PM1/CCR5 cells assessed as protection from virus-induced cytopathogenicity at 25 uM after 5 days by MTT assay; type: functional; conditions: Human immunodeficiency virus 1, NL(AD8), PM1/CCR5, 120 h
[10] = tested on: Human immunodeficiency virus 1; experiment: Antiviral activity against X4 tropic HIV1 NL4-3 in MT4 cells assessed as protection from virus-induced cytopathogenicity at 12.5 uM after 5 days by MTT assay; type: functional, organism-based
[11] = tested on: Human immunodeficiency virus 1; experiment: Antiviral activity against X4 tropic HIV1 NL4-3 in MT4 cells assessed as protection from virus-induced cytopathogenicity at 25 uM after 5 days by MTT assay; type: functional, organism-based

| Structure (SMILES) | EC50 [1] [µM] | CC50 at 120 h [4] [µM] | EC50 [7] [µM] | other results |
| --- | --- | --- | --- | --- |
| CC(=O)N[C@@H](CC(C)C)C(=O)NCC(=O)N[C@@H](CCC(N)=O)C(=O)N[C@@H](CC(C)C)C(=O)N[C@@H](CCC(N)=O)C(=O)N1CCC[C@H]1C(=O)N[C@@H](CO)C(=O)N[C@@H](CC(C)C)C(=O)N[C@@H](CCC(N)=O)C(=O)N[C@H](C(=O)NCC(=O)N[C@@H](CO)C(=O)N[C@@H](CCC(=O)O)C(=O)N[C@@H](CCC(=O)O)C(=O)N[C@@H](CC(C)C)C(=O)NCC(=O)N[C@@H](CSCC(=O)N[C@@H](CCCNC(=N)N)C(=O)N[C@@H](CCCNC(=N)N)C(=O)N[C@@H](CCCNC(=N)N)C(=O)N[C@@H](CCCNC(=N)N)C(=O)N[C@@H](CCCNC(=N)N)C(=O)N[C@@H](CCCNC(=N)N)C(=O)N[C@@H](CCCNC(=N)N)C(=O)N[C@@H](CCCNC(=N)N)C(N)=O)C(N)=O)[C@@H](C)O | 35 | > 50 | – | inhibition at 50 µM [2]: 37%; inhibition at 50 µM [3]: 35% |
| CC[C@H](C)[C@H](NC(=O)[C@@H](NC(=O)[C@H](CC(N)=O)NC(=O)[C@H](Cc1ccc(O)cc1)NC(=O)[C@H](CC(C)C)NC(=O)[C@H](CO)NC(=O)[C@H](CCCNC(=N)N)NC(=O)[C@H](CC(C)C)NC(=O)[C@H](CCC(=O)O)NC(=O)[C@H](CCC(=O)O)NC(=O)[C@H](CO)NC(=O)CNC(C)=O)[C@@H](C)O)C(=O)N[C@@H](C)C(=O)N[C@H](C(=O)N[C@@H](CC(C)C)C(=O)NCC(=O)N[C@@H](CSCC(N)=O)C(N)=O)C(C)C | > 50 | > 50 | – | solubility [5]: Insoluble |
| CC[C@H](C)[C@H](NC(=O)[C@H](CCCNC(=N)N)NC(=O)[C@H](CCC(N)=O)NC(=O)[C@H](Cc1cnc[nH]1)NC(=O)[C@@H](NC(=O)[C@H](CO)NC(=O)[C@H](Cc1ccc(O)cc1)NC(=O)[C@H](CC(C)C)NC(=O)[C@@H](NC(=O)[C@H](C)NC(=O)[C@@H](NC(=O)[C@@H](NC(C)=O)[C@@H](C)O)[C@@H](C)CC)C(C)C)C(C)C)C(=O)N[C@@H](CC(=O)O)C(=O)N[C@H](C(=O)N[C@@H](CCCCN)C(=O)NCC(=O)N[C@@H](CSCC(=O)N[C@@H](CCCNC(=N)N)C(=O)N[C@@H](CCCNC(=N)N)C(=O)N[C@@H](CCCNC(=N)N)C(=O)N[C@@H](CCCNC(=N)N)C(=O)N[C@@H](CCCNC(=N)N)C(=O)N[C@@H](CCCNC(=N)N)C(=O)N[C@@H](CCCNC(=N)N)C(=O)N[C@@H](CCCNC(=N)N)C(N)=O)C(N)=O)C(C)C | 2.1 | 5.7 | 0.58 | EC50 [6]: 0.43 µM; solubility [8]: soluble |
| CC[C@H](C)[C@H](NC(=O)[C@H](CCCCN)NC(=O)[C@H](CC(=O)O)NC(=O)[C@H](CC(C)C)NC(C)=O)C(=O)N[C@@H](CCC(=O)O)C(=O)N[C@@H](CCC(=O)O)C(=O)N[C@@H](CCC(=O)O)C(=O)N[C@@H](CCC(N)=O)C(=O)N[C@@H](CC(N)=O)C(=O)N[C@@H](CCCCN)C(=O)N[C@@H](CO)C(=O)N[C@@H](CCCCN)C(=O)N[C@@H](CCCCN)C(=O)N[C@@H](CCCCN)C(=O)N[C@@H](C)C(=O)NCC(=O)N[C@@H](CSCC(=O)N[C@@H](CCCNC(=N)N)C(=O)N[C@@H](CCCNC(=N)N)C(=O)N[C@@H](CCCNC(=N)N)C(=O)N[C@@H](CCCNC(=N)N)C(=O)N[C@@H](CCCNC(=N)N)C(=O)N[C@@H](CCCNC(=N)N)C(=O)N[C@@H](CCCNC(=N)N)C(=O)N[C@@H](CCCNC(=N)N)C(N)=O)C(N)=O | 18 | > 50 | 23 | inhibition at 25 µM [9]: 17% |
| CC(=O)N[C@@H](CC(C)C)C(=O)N[C@@H](CCC(=O)O)C(=O)N[C@@H](CCCNC(=N)N)C(=O)N[C@@H](Cc1ccccc1)C(=O)N[C@@H](C)C(=O)N[C@H](C(=O)N[C@@H](CC(N)=O)C(=O)N1CCC[C@H]1C(=O)NCC(=O)N[C@@H](CC(C)C)C(=O)N[C@@H](CC(C)C)C(=O)N[C@@H](CCC(=O)O)C(=O)N[C@H](C(=O)N[C@@H](CO)C(=O)N[C@@H](CCC(=O)O)C(=O)NCC(=O)N[C@@H](CSCC(=O)N[C@@H](CCCNC(=N)N)C(=O)N[C@@H](CCCNC(=N)N)C(=O)N[C@@H](CCCNC(=N)N)C(=O)N[C@@H](CCCNC(=N)N)C(=O)N[C@@H](CCCNC(=N)N)C(=O)N[C@@H](CCCNC(=N)N)C(=O)N[C@@H](CCCNC(=N)N)C(=O)N[C@@H](CCCNC(=N)N)C(N)=O)C(N)=O)[C@@H](C)O)C(C)C | 40 | > 50 | 42 | inhibition at 50 µM [2]: 42% |
| CC(=O)N[C@@H](CO)C(=O)N[C@@H](CCCCN)C(=O)N[C@@H](CCCCN)C(=O)N[C@@H](CCCCN)C(=O)N[C@@H](C)C(=O)N[C@@H](CCC(N)=O)C(=O)N[C@@H](CCC(N)=O)C(=O)N[C@@H](C)C(=O)N[C@@H](C)C(=O)N[C@@H](C)C(=O)N[C@@H](CC(=O)O)C(=O)N[C@H](C(=O)NCC(=O)N[C@@H](CC(N)=O)C(=O)N[C@@H](CC(N)=O)C(=O)NCC(=O)N[C@@H](CSCC(=O)N[C@@H](CCCNC(=N)N)C(=O)N[C@@H](CCCNC(=N)N)C(=O)N[C@@H](CCCNC(=N)N)C(=O)N[C@@H](CCCNC(=N)N)C(=O)N[C@@H](CCCNC(=N)N)C(=O)N[C@@H](CCCNC(=N)N)C(=O)N[C@@H](CCCNC(=N)N)C(=O)N[C@@H](CCCNC(=N)N)C(N)=O)C(N)=O)[C@@H](C)O | 41 | > 50 | 27 | inhibition at 25 µM [9]: 30% |
| CC(=O)N[C@@H](CC(=O)O)C(=O)N[C@H](C(=O)NCC(=O)N[C@@H](CC(N)=O)C(=O)N[C@@H](CC(N)=O)C(=O)N[C@@H](CO)C(=O)N[C@@H](CCC(N)=O)C(=O)N[C@H](C(=O)N[C@@H](CO)C(=O)N[C@@H](CCC(N)=O)C(=O)N[C@@H](CC(N)=O)C(=O)N[C@@H](Cc1ccc(O)cc1)C(=O)NCC(=O)N[C@@H](CS)C(N)=O)C(C)C)[C@@H](C)O | – | – | – | solubility [8]: Insoluble |
| CC[C@H](C)[C@H](NC(=O)[C@H](CCCCN)NC(=O)[C@H](CC(=O)O)NC(=O)[C@H](CC(C)C)NC(=O)[C@H](C)NC(=O)[C@H](CCC(=O)O)NC(=O)[C@H](CCCCN)NC(=O)[C@@H](NC(=O)[C@H](CC(=O)O)NC(=O)[C@H](CCCCN)NC(=O)[C@@H](NC(=O)[C@H](CC(=O)O)NC(=O)[C@@H](NC(=O)[C@H](CCCNC(=N)N)NC(C)=O)[C@@H](C)CC)C(C)C)[C@@H](C)O)C(=O)N[C@@H](CCC(=O)O)C(=O)NCC(=O)N[C@@H](CSCC(N)=O)C(N)=O | – | 17 | – | inhibition [10]: inactive |
| CC[C@H](C)[C@H](NC(=O)[C@@H](NC(=O)[C@H](CC(N)=O)NC(=O)[C@H](Cc1ccc(O)cc1)NC(=O)[C@H](CC(C)C)NC(=O)[C@H](CO)NC(=O)[C@H](CCCNC(=N)N)NC(=O)[C@H](CC(C)C)NC(=O)[C@H](CCC(=O)O)NC(=O)[C@H](CCC(=O)O)NC(=O)[C@H](CO)NC(=O)CNC(C)=O)[C@@H](C)O)C(=O)N[C@@H](C)C(=O)N[C@H](C(=O)N[C@@H](CC(C)C)C(=O)NCC(=O)N[C@@H](CSCC(=O)N[C@@H](CCCNC(=N)N)C(=O)N[C@@H](CCCNC(=N)N)C(=O)N[C@@H](CCCNC(=N)N)C(=O)N[C@@H](CCCNC(=N)N)C(=O)N[C@@H](CCCNC(=N)N)C(=O)N[C@@H](CCCNC(=N)N)C(=O)N[C@@H](CCCNC(=N)N)C(=O)N[C@@H](CCCNC(=N)N)C(N)=O)C(N)=O)C(C)C | 2.3 | 9 | 7.8 | EC50 [6]: 5.8 µM; solubility [8]: soluble |
| CC[C@H](C)[C@H](NC(=O)[C@H](Cc1cnc[nH]1)NC(=O)[C@H](CCCCN)NC(=O)[C@H](CC(C)C)NC(C)=O)C(=O)N[C@H](C(=O)N[C@@H](Cc1c[nH]c2ccccc12)C(=O)N[C@@H](C)C(=O)N[C@@H](CO)C(=O)N[C@@H](CCCNC(=N)N)C(=O)N[C@@H](CCC(=O)O)C(=O)N[C@@H](CC(C)C)C(=O)N[C@@H](CCC(=O)O)C(=O)N[C@@H](CCCNC(=N)N)C(=O)N[C@@H](Cc1ccccc1)C(=O)N[C@@H](C)C(=O)NCC(=O)N[C@@H](CSCC(N)=O)C(N)=O)C(C)C (Ac-LKHIVWASRELERFAGC(Cam)-NH2) | – | 14 | – | inhibition [10]: inactive |
| CC[C@H](C)[C@H](NC(=O)[C@H](Cc1cnc[nH]1)NC(=O)[C@H](CCCCN)NC(=O)[C@H](CC(C)C)NC(=O)[C@H](CCCCN)NC(=O)[C@H](Cc1ccc(O)cc1)NC(=O)[C@H](CCC(N)=O)NC(=O)[C@H](CCCCN)NC(=O)[C@H](CCCCN)NC(=O)CNC(=O)CNC(=O)[C@@H]1CCCN1C(=O)[C@H](CCCNC(=N)N)NC(=O)[C@H](CC(C)C)NC(C)=O)C(=O)N[C@H](C(=O)NCC(=O)N[C@@H](CSCC(=O)N[C@@H](CCCNC(=N)N)C(=O)N[C@@H](CCCNC(=N)N)C(=O)N[C@@H](CCCNC(=N)N)C(=O)N[C@@H](CCCNC(=N)N)C(=O)N[C@@H](CCCNC(=N)N)C(=O)N[C@@H](CCCNC(=N)N)C(=O)N[C@@H](CCCNC(=N)N)C(=O)N[C@@H](CCCNC(=N)N)C(N)=O)C(N)=O)C(C)C | – | 36 | – | inhibition [11]: inactive |
| CC[C@H](C)[C@H](NC(=O)[C@H](Cc1cnc[nH]1)NC(=O)[C@H](CCCCN)NC(=O)[C@H](CC(C)C)NC(=O)[C@H](CCCCN)NC(=O)[C@H](Cc1ccc(O)cc1)NC(=O)[C@H](CCC(N)=O)NC(=O)[C@H](CCC(=O)O)NC(=O)[C@H](Cc1c[nH]c2ccccc12)NC(=O)[C@H](CCCCN)NC(=O)[C@H](CC(=O)O)NC(=O)[C@H](CC(C)C)NC(=O)[C@H](CCC(=O)O)NC(=O)CNC(C)=O)C(=O)N[C@H](C(=O)NCC(=O)N[C@@H](CSCC(=O)N[C@@H](CCCNC(=N)N)C(=O)N[C@@H](CCCNC(=N)N)C(=O)N[C@@H](CCCNC(=N)N)C(=O)N[C@@H](CCCNC(=N)N)C(=O)N[C@@H](CCCNC(=N)N)C(=O)N[C@@H](CCCNC(=N)N)C(=O)N[C@@H](CCCNC(=N)N)C(=O)N[C@@H](CCCNC(=N)N)C(N)=O)C(N)=O)C(C)C | – | 36 | – | inhibition [11]: inactive |
